In one assay the test system is U138-MG cells. As to the kind of experiment: Boyden chamber Matrigel invasion, U138-MG. The format is cell-based, human. Particulars: for invasion, % of basal, average 2 expts: mean of 2 expts; for invasion, % of basal, average expt 1: mean of expt 1; for invasion, % of basal, average expt 2: mean of expt 2; for invasion, % of basal, T-test list: single replicates of both expts. On the procedure:
The migration and invasion assays were performed using Boyden chambers and 8 µm pore size PVP-free filters coated with 50 µg/mL of collagen type VI (Sigma), as previously described. For the invasion assays, collagen-coated filters were further coated with 50 µg/mL Matrigel^TM (Sigma). Briefly, 11 × 10^4 U87-MG, 4 × 10^4 U251-MG, or 4 × 10^4 U138-MG/sample were pre-treated for 40 min at 37 °C with the indicated effectors. Then, the cells were allowed to migrate for 3 h or to invade for 5 h at 37 °C toward 5% FBS in DMEM/0.1% BSA. At the end of both assays, the cells on the lower filter surface were fixed, stained with haematoxylin, and counted under an optical microscope (Zeiss Axiophot, Carl Zeiss, Milan, Italy) at 20× magnification. The migration and invasion experiments were conducted in triplicate for U87-MG and in duplicate for U251-MG and U138-MG. The migrated or invaded cells were reported as percentage of basal migration or invasion in the presence of DMEM/0.1% BSA, taken as 100%, and analyzed as reported in Section 2.11.
Figure 4 Effect of uPAcyclin on matrix invasion of U87-MG, U251-MG, and U138-MG GBM cells. Quantitative analysis of U87-MG (A), U251-MG (B), and U138-MG (C) invasion. A total of 11 × 10^4 U87-MG or […] U251-MG or U138-MG/sample were pre-treated for 40 min at 37 °C with uPAcyclin (100 nM, 1 µM), anti-αV polyclonal (anti-αV-Pclonal) or monoclonal (anti-αV MoAb) antibody, or anti-actin polyclonal antibody (anti-actin), and then assayed in Boyden chambers at 37 °C, either for basal (BSA) or FBS-dependent invasion (5% FBS) for 5 h at 37 °C. Data are expressed as in the legend to Figure 3. Results are expressed as percentages with respect to the basal invasion, considered as 100% (* p-value < 0.05; ** p-value < 0.005; *** p-value < 0.001).

Assay [1] relates to U138-MG cells (αV integrin). As to the kind of experiment: FITC-uPAcyclin receptor binding/competition, U138-MG. On the set-up: species or system human. To be noted: unlabeled uPAcyclin vs FITC-uPAcyclin, 4 °C. As to the method: The U87-MG, U251-MG, and U138-MG cell lines were harvested and acid-treated, as described. Then, 2 × 10^6 cells/sample were exposed for 30 min at 4 °C to uPAcyclin or S-uPAcyclin at the indicated concentrations, or with the following antibodies: VNR147 monoclonal anti-αV integrin (Chemicon Int. Inc., Temecula, CA, USA), polyclonal anti-αV (Millipore, Burlington, MA, USA), monoclonal anti-α2 (Chemicon Int. Inc., Temecula, CA, USA), polyclonal anti-actin (Sigma-Aldrich, St. Louis, MO, USA), monoclonal anti-GAPDH (Abcam, Cambridge, UK), and purified vitronectin (VN, Corning, Glendale, AZ, USA). The cells were subsequently incubated with 50 nM FITC-uPAcyclin for 2 h at 4 °C, as described. At the end of incubation, the cells were washed and the cell surface-associated fluorescence was determined using a fluorimeter (VICTOR^TM X3-PerkinElmer, Waltham, MA, USA). All binding assays were performed three times, with duplicate samples, and analyzed as described in Section 2.11.
Figure 2 αV expression of U87-MG, U251-MG, and U138-MG GBM cells and specific binding of FITC-uPAcyclin. […] At the end of the incubation, the unbound material was washed and cell-associated FITC-uPAcyclin was quantitated by a fluorimeter. The net value of cell-surface-associated fluorescence, corresponding to the specific binding, is shown. […]

The mark [2] stands for this setting: 100 nM, 5% FBS, 5 h, expt 1, duplicates.
Setting [3] is: 100 nM, 5% FBS, 5 h, expt 2, duplicates.
[4] abbreviates: 1 µM, 5% FBS, 5 h, expt 1, duplicates.
[5] abbreviates: 1 µM, 5% FBS, 5 h, expt 2, duplicates.

“And” between values parts separate entries of the source, which are not always exact repeats. Identical values can stand only once.

Consider “Ac-K^1P[ESPPEELK^10]-NH2 (sidechain bridge or staple) [uPAcyclin]”, for which, in the assay with U138-MG cells (100 nM, U138-MG, 5% FBS, 5 h), the reduction in invasion was 50–60%. Also, the invaded cell number/field in the assay on U138-MG cells (setting [2]) was 10 cell number/field and 8 cell number/field; with U138-MG cells (setting [3]), 9 cell number/field and 8 cell number/field; in the assay with U138-MG cells (setting [4]), 7 cell number/field and 6 cell number/field; in the assay with U138-MG cells (setting [5]), 6 cell number/field and 5 cell number/field. Further, the “invasion, % of basal” value in the assay on U138-MG cells (setting [2]) was 143% and 114%; with U138-MG cells (setting [3]), 150% and 133%; in the assay with U138-MG cells (setting [4]), 100% and 86%; with U138-MG cells (setting [5]), 100% and 83%. Also, the “invasion, % of basal, average 2 expts” value is reported as 135% in the assay with U138-MG cells (100 nM, 5% FBS, 5 h) and 92% with U138-MG cells (1 µM, 5% FBS, 5 h). The “invasion, % of basal, average expt 1” value with U138-MG cells (100 nM, 5% FBS, 5 h) came to 129%; with U138-MG cells (1 µM, 5% FBS, 5 h), 93%. For the same substance, the “invasion, % of basal, average expt 2” value in the assay on U138-MG cells (100 nM, 5% FBS, 5 h) is on record as 142%; in the assay with U138-MG cells (1 µM, 5% FBS, 5 h), 92%. Also, the “invasion, % of basal, T-test list” value with U138-MG cells (100 nM) is 143 and 114 and 150 and 133; in the assay on U138-MG cells (1 µM), 100 and 86 and 83. In the assay with U138-MG cells (1 µM, U138-MG, 5% FBS, 5 h), the “invasion, in words” value is recorded as “reduced invasion to basal levels”. For the same substance, the Kdapp result in assay [1] is listed as “low nanomolar range”.

The values are drawn from paper PMC10571957, “αV-Integrin-Dependent Inhibition of Glioblastoma Cell Migration, Invasion and Vasculogenic Mimicry by the uPAcyclin Decapeptide” (Cancers, 2023).
